Data on one compound can be found in publication PMC6934184, “Selective DNA-PKcs inhibition extends the therapeutic index of localized radiotherapy and chemotherapy” (The Journal of Clinical Investigation, 2019).

The target of the assay is T1, RET Y791F (Homo sapiens, UniProt P07949, Y791F).
T1 construct: purchased Thermo Fisher Scientific (Life Technologies) SelectScreen
The assay can be described thus: SelectScreen Z'LYTE. Format: biochemical. On the procedure: The in vitro kinase selectivity of NU5455 was determined using the SelectScreen Broad Assay Panel (Thermo Fisher Scientific) involving activity and binding assays (Supplemental Table 1). […] Class IA PI3Ks were measured using the p85α subunit.
Kinase [ATP] % Assay Kinase [ATP] % Assay Kinase [ATP] % Assay Kinase [ATP] % Assay […]
RET Y791F Km app 9.2 Z PIK3CG (p110 gamma) Km app 2.9 A KIT D816H n/a -0.2 L TAOK2 (TAO1) Km app -5.1 Z […]
SGK (SGK1) Km app 8.5 Z MAP4K2 (GCK) Km app 2.7 Z TLK2 n/a -0.3 L STK38 (NDR) n/a -5.9 L
MERTK (cMER) Km app 8.3 Z CDK2/cyclin A Km app 2.7 Z TGFBR1 (ALK5) n/a -0.4 L MATK (HYL) Km app -6.3 Z
FYN Km app 8.3 Z EPHA1 Km app 2.7 Z CLK3 Km app -0.5 Z ABL1 E255K Km app -6.6 Z
TEC n/a 8.1 L CDK2/cyclin E1 n/a 2.7 L MAP3K14 (NIK) n/a -0.5 L STK17A (DRAK1) n/a -6.6 L
KIT V654A n/a 8.1 L TESK2 n/a 2.7 L AKT3 (PKB gamma) Km app -0.5 Z JAK2 JH1 JH2 Km app -6.7 Z
ROS1 Km app 8.0 Z SPHK1 Km app 2.7 A MAP3K9 (MLK1) Km app -0.5 Z PRKACB (PRKAC beta) n/a -6.8 L
FGFR3 K650E Km app 7.9 Z AMPK A2/B1/G1 Km app 2.6 Z IKBKB (IKK beta) Km app -0.6 Z PDGFRA (PDGFR alpha) Km app -6.8 Z
RAF1 (cRAF) Y340D Y341D 100 7.9 Z DYRK3 Km app 2.6 Z CAMK2A (CaMKII alpha) Km app -0.6 Z NEK9 Km app -7.2 Z
PI4KA (PI4K alpha) 10 7.8 A CSNK1D (CK1 delta) Km app 2.6 Z PRKCB1 (PKC beta I) Km app -0.7 Z PDK1 Km app -7.3 Z
HIPK2 Km app 7.8 Z ACVR2A n/a 2.5 L TTK n/a -0.7 L RPS6KB1 (p70S6K) Km app -7.8 Z […]

T1 sequence (P07949 29-1114 Y791F): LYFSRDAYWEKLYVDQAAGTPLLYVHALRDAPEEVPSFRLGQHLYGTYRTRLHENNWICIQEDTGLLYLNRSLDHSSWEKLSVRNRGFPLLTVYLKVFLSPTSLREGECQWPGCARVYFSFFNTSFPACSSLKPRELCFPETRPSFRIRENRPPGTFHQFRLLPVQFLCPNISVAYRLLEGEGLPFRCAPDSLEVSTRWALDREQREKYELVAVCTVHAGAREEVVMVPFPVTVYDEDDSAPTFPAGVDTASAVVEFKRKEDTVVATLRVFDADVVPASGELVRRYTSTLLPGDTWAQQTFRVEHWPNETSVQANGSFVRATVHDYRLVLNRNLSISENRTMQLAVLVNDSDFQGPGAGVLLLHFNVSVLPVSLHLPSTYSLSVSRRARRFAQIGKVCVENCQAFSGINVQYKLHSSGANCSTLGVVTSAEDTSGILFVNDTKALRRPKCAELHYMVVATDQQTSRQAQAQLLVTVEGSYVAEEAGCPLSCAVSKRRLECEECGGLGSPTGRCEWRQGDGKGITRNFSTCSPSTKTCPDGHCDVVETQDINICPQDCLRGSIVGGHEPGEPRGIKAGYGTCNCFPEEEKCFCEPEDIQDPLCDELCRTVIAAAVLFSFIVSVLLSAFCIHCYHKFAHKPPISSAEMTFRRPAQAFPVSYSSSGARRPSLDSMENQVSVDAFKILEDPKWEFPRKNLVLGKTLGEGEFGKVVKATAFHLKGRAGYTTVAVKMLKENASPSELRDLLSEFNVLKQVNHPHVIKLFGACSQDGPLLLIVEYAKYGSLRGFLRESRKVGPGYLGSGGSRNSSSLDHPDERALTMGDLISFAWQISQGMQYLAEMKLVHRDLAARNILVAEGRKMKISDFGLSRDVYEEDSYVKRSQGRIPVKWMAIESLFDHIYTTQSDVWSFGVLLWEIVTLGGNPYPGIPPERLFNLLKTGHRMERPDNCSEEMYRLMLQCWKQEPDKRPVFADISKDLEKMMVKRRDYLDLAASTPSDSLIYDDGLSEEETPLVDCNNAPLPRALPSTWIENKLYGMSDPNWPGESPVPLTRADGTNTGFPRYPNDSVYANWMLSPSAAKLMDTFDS

Regarding `CN(C(=O)CN1CCOCC1)c1ccc2sc3c(-c4cccc5c(=O)cc(N6CC7CCC(C6)O7)oc45)cccc3c2c1` [NU5455], the inhibition (commonly the relative decrease from the control value, in per cent) at 1 µM is 9.2%.
